Laboratory results taken from patent publication US8026211B2, “Methods and formulations for increasing intestinal function” (Technion Research & Development Foundation Ltd., priority 2004, dated 2011).

Columns and labels:
[1] = tested on: jejunal and ileal crypt cells; assay: Rat model of SBS: crypt cell proliferation (5-BrdU incorporation); assay type: in vivo; conditions: SBS rats, oral insulin, vs SBS-untreated, p<0.05
Protocol: Animal treatment: Animals were obtained from the Rappaport Faculty of Medicine (Technion, Haifa, Israel). Male rats weighing 240-260 g were kept in individual stainless steel cages at constant temperature and humidity, and a 12-hour light-dark cycle was maintained. Rats were fasted 12 hours prior to the experiment with free access to water. Animals underwent one of two surgical procedures: bowel transection and re-anastomosis or 75% bowel resection and anastomosis. General anesthesia was induced with Pentobarbital (IP 40 mg/kg). Using sterile techniques, the abdomen was opened using a midline incision. […]
Group C—SBS-Insulin (SBS-INS, n=13) rats underwent bowel resection and were fed regular chow diet and water containing insulin (ACTRAPID insulin, NOVO NORDISK, Denmark) at concentration of 1 u/ml. Food and fluid intake of animals were monitored as well as weight for a period of 14 days following treatment after which the animals were sacrificed following intraperitoneal injection of pentobarbital (75 mg/kg).
Crypt Cell Proliferation and Enterocyte Apoptosis: Rats were injected with standard 5-bromodeoxyuridine (5-BrdU) labeling reagent (Zymed Lab, Inc, CA) at dose 1 ml per 100 g body weight two hours prior to sacrifice. […] An index of proliferation was determined as the ratio of crypt cells staining positively for BrdU per 10 crypts.

[2] = tested on: ischemia-reperfusion (IR) injury in rats; assay: Rat ischemia-reperfusion injury: survival and intestinal mucosal parameters (bowel and mucosal weight, DNA, protein); assay type: in vivo
Protocol: Animals: Animals were obtained from the Rappaport Faculty of Medicine (Technion, Haifa, Israel). Male rats weighing 240-260 g were kept in individual stainless steel cages at constant temperature and humidity, and a 12-hour light-dark cycle was maintained. Rats were fasted 12 hours prior to the experiment with free access to water.
Surgical procedure: Following overnight fasting, the animals were anesthetized with intraperitoneal injection of pentobarbital (IP 40 mg/kg). Using sterile techniques, the abdomen was opened using a midline incision. […] IR underwent laparotomy, mobilization and occlusion of SMA and portal vein by vascular clamp for 30 minutes followed by a reperfusion period of 24 hours. Before closure of the abdomen, the rats were resuscitated with a 3-ml intraperitoneal injection of warm 0.9% saline. For all operations, the abdominal cavity was closed in two layers with a running suture of Dexon “S” Polyglycolic Acid 3/0. Rats were allowed free access to water and food. Twenty-four hours later, the rats were anesthetized with intraperitoneal pentobarbital (75 mg/kg) and were sacrificed by open pneumothorax.
Intestinal Mucosal Parameters: The small intestine from the pylorus to the ileo-cecal valve was removed and divided into two segments: proximal jejunum and distal ileum. The intestine was split on the antimesenteric border, washed with cold saline, dried, and each segment was weighed. The mucosa was scraped from the underlying tissue with a glass slide and weighed. Bowel and mucosal weights were calculated as mg/cm bowel length/100 g body weight. Mucosal samples were homogenized with TRIzol reagent (Rhenium LTD, Jerusalem). DNA and protein were extracted by the method of Chomczynski [BioTechniques. 15:532, 1993] and were expressed as micrograms per centimeter of bowel per 100 g of body weight. In brief, 100 mg tissue was mixed with 1 ml of TRIzol reagent and homogenized for 2 min. Following a three minute incubation period and centrifugation the contents separated into three phases. DNA was isolated from the interphase using ethanol, washed with sodium citrate and was stabilised with 75% ethanol. Protein was isolated from the lower phase using isopropyl alcohol, washed with guanidine hydrochloride, and stabilised with 100% ethanol. Quantitation of DNA was performed with a spectrophotomer. Concentration of the final protein concentration was detected using Bio-Rad Protein Assay technique.
Statistical analysis: All data are given as mean±SD. Differences between experimental groups were tested for statistical significance (p<0.05) using the nonparametric Kruskal-Wallis ANOVA test, followed by the corrected Mann-Whitney test.

[3] = IR-INS rats, 24 h reperfusion, IR 18±3, p<0.05

insulin was tested, and the “additional increase in proliferation index in jejunum” value [1] was 36%, the “increase in proliferation index in ileum” value [1] was 52% and the post-operative mortality ([2]; IR rats, insulin in drinking water (2%) 3 days prior to and 24 hours following IR) was “no effect”. The ileal mucosal weight ([2]; IR-INS rats, 24 h reperfusion, IR 5.9±0.6, p<0.05) was 7.3±0.4 mg/cm/100 g, the jejunal mucosal weight ([2]; IR-INS rats, 24 h reperfusion, IR 7.0±0.6, p<0.05) was 8.9±0.6 mg/cm/100 g and the “mucosal protein in ileum” value [2, 3] was 25±2 μg/cm/100 g. The “mucosal protein in jejunum” value [2, 3] was 28±3 μg/cm/100 g and the “jejunal intestinal (bowel) weight” value ([2]; IR-INS rats, 24 h reperfusion, IR 20.1±0.7, p<0.05) was 23±0.8 mg/cm/100 g.
